Data from PubChem BioAssay (NCI).
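How tested: cells in 96-well plates exposed to compound for 48 hours at five concentrations. At the GI50, growth is halved. Definition used: TGI = concentration required for complete inhibition of growth.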

Tested on: MDA-MB-468 breast
Assay: inhibition of tumour cell growth, NCI panel, 48 h

Compared with `O=c1n(CC2CO2)c(=O)n(CC2CO2)n1CC1CO1` (configuration not stated), `COc1cc2c3c(n(CCCNC4CCCCC4)c(=O)c2cc1OC)-c1cc2c(cc1C3=O)OCO2` is 2.5-fold higher in GI50: 2.29 µM for the first, 5.65 µM for the second.

`O=C(CN1CCN(c2cc3c(cc2F)c(=O)c(C(=O)N/N=C/c2ccccc2O)cn3C2CC2)CC1)N/N=C\c1ccccc1O` and `CCOc1ccccc1-n1c(CN2CCN(C(=O)COc3ccc(CNCCCCCCN4C5CCCC4CC(OC(=O)Nc4cc(C)ccc4OC)C5)cc3)CC2)nc2ccccc2c1=O` (configuration not stated) are within 1.5-fold of each other in GI50: 0.599 µM for the first, 0.786 µM for the second.

Going from `Fc1ccc(Nc2ncnc3ccc(-c4cnc5[nH]ccc5c4)cc23)cc1Cl` to `Clc1ccc2c(N/N=C/c3c[nH]c4ccccc34)ccnc2c1`, the GI50 rises from 0.115 µM to 1.01 µM (8.8-fold).

First: O=C1/C(=C/c2ccc([N+](=O)[O-])cc2)COc2ccc(O)c(O)c21
Second: O=C(Nc1ccc(I)cc1)c1cc([N+](=O)[O-])ccc1O
The GI50 of the first is 2.1-fold lower: 1.87 µM for the first, 3.99 µM for the second.

`CNC(=O)c1ccccc1Nc1nc(Nc2ccc(N3CCOCC3)cc2OC)ncc1Cl` and `Clc1ccc2oc3c(NCCCN4CCOCC4)c4ccccc4nc3c2c1` are the same in GI50: 1.49 µM for the first, 1.49 µM for the second.

Compared with `COc1cc(C(=O)/C=C/c2sc(Cl)nc2Cl)cc(OC)c1OC`, `COc1cc2c(c(OC)c1O)C(=O)C(OC)C(c1ccc(O)c(O)c1)O2` (configuration not stated) is 3.9-fold lower in GI50: 1.83 µM for the first, 0.464 µM for the second.

Compared with `Nc1cc2nc3ccccc3sc-2cc1=O`, `Oc1ccc(Cl)cc1-c1cc(-c2ccccc2Cl)[nH]n1` is 1.9-fold lower in GI50: 3.74 µM for the first, 1.96 µM for the second.

Compared with `COc1ccc2c(c1)C(=O)/C(=C/c1ccc(OCC(=O)Nc3nccs3)cc1)O2`, `Cn1ccnc1C(=O)/C=C/c1ccc(CC(=O)Nc2ccc(Br)cc2)cc1` is 150-fold higher in GI50: 0.0181 µM for the first, 2.7 µM for the second.

Compared with `COc1c2ccoc2c(/C=C/C=O)c2oc(-c3ccccc3)cc(=O)c12`, `COC(=O)Nc1nc2ccc(S(=O)c3ccccc3)cc2[nH]1` (configuration not stated) is 3.6-fold lower in GI50: 7.02 µM for the first, 1.94 µM for the second.

Going from `COc1ccc(-c2cc(-c3ccc(Nc4nc(Nc5ccccc5)nc(Nc5ccc(Cl)cc5)n4)cc3)nc(N)c2C#N)cc1` to `O=C1c2ccccc2C(=O)c2sc(Nc3cccc(Cl)c3)nc21`, the GI50 rises from 1.15 µM to 1.77 µM (1.5-fold).

Compared with `CSc1ccccc1C#C/C=C\C#Cc1ccccc1N1CCCC1=O`, `O=C(CCl)N1c2ccccc2Oc2ccc3ccccc3c21` is 1.9-fold lower in GI50: 1.89 µM for the first, 0.973 µM for the second.

Compared with `Cc1cc2nc(C(Cl)Cl)nc(-c3ccc(Cl)cc3)n2n1`, `Cc1cc(=O)n2[nH]c(-c3ccc(C(C)(C)C)cc3)cc2n1` is 11-fold higher in GI50: 0.299 µM for the first, 3.38 µM for the second.

Compared with `CCOC(=O)Nc1nc2ccc(OCC)cc2s1`, `CNC(=O)c1cc(Oc2ccc3nc(NC(=O)Nc4ccc(Cl)c(C(F)(F)F)c4)sc3c2)ccn1` is 1.5-fold lower in GI50: 2.08 µM for the first, 1.36 µM for the second.

Compared with `NC1CCC(Nc2nc(NCc3ccc(-c4ccco4)nc3)c3ncn(C4CCCC4)c3n2)CC1` (configuration not stated), `O=C(NCCNc1nccc(-c2c(-c3cccc(O)c3)nc3sccn23)n1)c1ccccc1O` is 310-fold higher in GI50: 0.00841 µM for the first, 2.64 µM for the second.

Compared with `CC(C)c1ccc(C(C)C(=O)N(CC2=C(C(C)c3ccccn3)c3ccccc3C2)C(C)C)cc1` (configuration not stated), `NC(CSC(c1ccccc1)(c1ccccc1)c1ccc2c(c1)OCO2)C(=O)O` (configuration not stated) is 11-fold lower in GI50: 2.78 µM for the first, 0.254 µM for the second.

Compared with `O=C(Nc1ccc(F)cc1F)c1cc(I)ccc1O`, `C[C@@H](CS(C)(=O)=O)Nc1ncc2cc(Oc3ccc(F)cc3F)c(=O)n(C)c2n1` is higher in GI50: 2.55 µM for the first, greater than 25 µM for the second.

First: Cc1cnc(NC(=O)C(Cc2ccccc2)NC(=O)c2ccccc2)s1 (configuration not stated)
Second: Clc1cccc(Cc2cn3cc(-c4ccccc4)nc3s2)c1Cl
The GI50 of the first is 2.5-fold higher: 15.8 µM for the first, 6.28 µM for the second.

Compared with `CCCCCCCC(=O)SCC/C=C/[C@@H]1CC(=O)NCc2cccc(n2)C2=N[C@@](C)(CS2)C(=O)N[C@@H](C(C)C)C(=O)N1`, `Cc1nc2c(nc1C)C(=O)c1ccccc1C2=O` is 2.8-fold higher in GI50: 0.535 µM for the first, 1.5 µM for the second.

`CC(=O)[O][Hg][c]1c(N)c(C)cc(C)c1F` and `COc1cc(/C=C/c2cc(/C=C/c3ccc(O)c(OC)c3)n(C(=O)Nc3ccc(F)cc3)n2)ccc1O` are within 1.5-fold of each other in GI50: 1.34 µM for the first, 1.4 µM for the second.

`C=C(CNCCO)[C@@H]1CC[C@]2(CO)CC[C@]3(C)[C@H](CC[C@@H]4[C@@]5(C)CCC(N)C(C)(C)[C@@H]5CC[C@]43C)[C@@H]12` (some centres not stated) and `CN(C)CCCNC1=C(Cl)C(=O)c2ccccc2C1=O` are within 1.5-fold of each other in GI50: 1.67 µM for the first, 1.59 µM for the second.

Compound `COc1cc2nc(-c3ccc(C(F)(F)F)cc3)cc(OCCCN3CCC(O)CC3)c2cc1OC` has a GI50 of 1.63 µM.

`O=c1n(CC2CO2)c(=O)n(CC2CO2)n1CC1CO1` (configuration not stated) and `COc1cc2c3c(n(CCCNC4CCCCC4)c(=O)c2cc1OC)-c1cc2c(cc1C3=O)OCO2` are within 1.5-fold of each other in TGI: 16.8 µM for the first, 15.7 µM for the second.

`O=C(CN1CCN(c2cc3c(cc2F)c(=O)c(C(=O)N/N=C/c2ccccc2O)cn3C2CC2)CC1)N/N=C\c1ccccc1O` and `CCOc1ccccc1-n1c(CN2CCN(C(=O)COc3ccc(CNCCCCCCN4C5CCCC4CC(OC(=O)Nc4cc(C)ccc4OC)C5)cc3)CC2)nc2ccccc2c1=O` (configuration not stated) are within 1.5-fold of each other in TGI: 2.96 µM for the first, 2.42 µM for the second.

Going from `Fc1ccc(Nc2ncnc3ccc(-c4cnc5[nH]ccc5c4)cc23)cc1Cl` to `Clc1ccc2c(N/N=C/c3c[nH]c4ccccc34)ccnc2c1`, the TGI rises from 0.575 µM to 2.45 µM (4.3-fold).

First: O=C1/C(=C/c2ccc([N+](=O)[O-])cc2)COc2ccc(O)c(O)c21
Second: O=C(Nc1ccc(I)cc1)c1cc([N+](=O)[O-])ccc1O
The TGI of the first is 7.1-fold lower: 5.55 µM for the first, 39.4 µM for the second.

`CNC(=O)c1ccccc1Nc1nc(Nc2ccc(N3CCOCC3)cc2OC)ncc1Cl` and `Clc1ccc2oc3c(NCCCN4CCOCC4)c4ccccc4nc3c2c1` are within 1.5-fold of each other in TGI: 4.32 µM for the first, 3.5 µM for the second.

First: COc1cc(C(=O)/C=C/c2sc(Cl)nc2Cl)cc(OC)c1OC
Second: COc1cc2c(c(OC)c1O)C(=O)C(OC)C(c1ccc(O)c(O)c1)O2 (configuration not stated)
The TGI of the first is 9-fold lower: 3.7 µM for the first, 33.3 µM for the second.

First: Nc1cc2nc3ccccc3sc-2cc1=O
Second: Oc1ccc(Cl)cc1-c1cc(-c2ccccc2Cl)[nH]n1
The TGI of the first is 2-fold higher: 16.1 µM for the first, 7.93 µM for the second.

Going from `COc1ccc2c(c1)C(=O)/C(=C/c1ccc(OCC(=O)Nc3nccs3)cc1)O2` to `Cn1ccnc1C(=O)/C=C/c1ccc(CC(=O)Nc2ccc(Br)cc2)cc1`, the TGI rises from 0.0392 µM to 6.62 µM (170-fold).

First: COc1c2ccoc2c(/C=C/C=O)c2oc(-c3ccccc3)cc(=O)c12
Second: COC(=O)Nc1nc2ccc(S(=O)c3ccccc3)cc2[nH]1 (configuration not stated)
The TGI of the first is 2.7-fold higher: 22.2 µM for the first, 8.29 µM for the second.

`COc1ccc(-c2cc(-c3ccc(Nc4nc(Nc5ccccc5)nc(Nc5ccc(Cl)cc5)n4)cc3)nc(N)c2C#N)cc1` and `O=C1c2ccccc2C(=O)c2sc(Nc3cccc(Cl)c3)nc21` are within 1.5-fold of each other in TGI: 3.05 µM for the first, 3.89 µM for the second.

Going from `CSc1ccccc1C#C/C=C\C#Cc1ccccc1N1CCCC1=O` to `O=C(CCl)N1c2ccccc2Oc2ccc3ccccc3c21`, the TGI falls from 13.8 µM to 2.45 µM (5.6-fold).

Compared with `Cc1cc2nc(C(Cl)Cl)nc(-c3ccc(Cl)cc3)n2n1`, `Cc1cc(=O)n2[nH]c(-c3ccc(C(C)(C)C)cc3)cc2n1` is 36-fold higher in TGI: 1.12 µM for the first, 40.6 µM for the second.

First: CCOC(=O)Nc1nc2ccc(OCC)cc2s1
Second: CNC(=O)c1cc(Oc2ccc3nc(NC(=O)Nc4ccc(Cl)c(C(F)(F)F)c4)sc3c2)ccn1
The TGI of the first is higher: greater than 100 µM for the first, 4.1 µM for the second.

First: NC1CCC(Nc2nc(NCc3ccc(-c4ccco4)nc3)c3ncn(C4CCCC4)c3n2)CC1 (configuration not stated)
Second: O=C(NCCNc1nccc(-c2c(-c3cccc(O)c3)nc3sccn23)n1)c1ccccc1O
The TGI of the first is 600-fold lower: 0.0349 µM for the first, 21 µM for the second.

Compared with `CC(C)c1ccc(C(C)C(=O)N(CC2=C(C(C)c3ccccn3)c3ccccc3C2)C(C)C)cc1` (configuration not stated), `NC(CSC(c1ccccc1)(c1ccccc1)c1ccc2c(c1)OCO2)C(=O)O` (configuration not stated) is 62-fold lower in TGI: 41.7 µM for the first, 0.672 µM for the second.

Compared with `O=C(Nc1ccc(F)cc1F)c1cc(I)ccc1O`, `C[C@@H](CS(C)(=O)=O)Nc1ncc2cc(Oc3ccc(F)cc3F)c(=O)n(C)c2n1` is higher in TGI: 6.88 µM for the first, greater than 25 µM for the second.

Going from `Cc1cnc(NC(=O)C(Cc2ccccc2)NC(=O)c2ccccc2)s1` (configuration not stated) to `Clc1cccc(Cc2cn3cc(-c4ccccc4)nc3s2)c1Cl`, the TGI rises from 35.7 µM to greater than 100 µM.

Going from `CCCCCCCC(=O)SCC/C=C/[C@@H]1CC(=O)NCc2cccc(n2)C2=N[C@@](C)(CS2)C(=O)N[C@@H](C(C)C)C(=O)N1` to `Cc1nc2c(nc1C)C(=O)c1ccccc1C2=O`, the TGI falls from greater than 33.3 µM to 6.04 µM.

First: CC(=O)[O][Hg][c]1c(N)c(C)cc(C)c1F
Second: COc1cc(/C=C/c2cc(/C=C/c3ccc(O)c(OC)c3)n(C(=O)Nc3ccc(F)cc3)n2)ccc1O
The TGI of the first is 2.1-fold lower: 2.74 µM for the first, 5.76 µM for the second.

`C=C(CNCCO)[C@@H]1CC[C@]2(CO)CC[C@]3(C)[C@H](CC[C@@H]4[C@@]5(C)CCC(N)C(C)(C)[C@@H]5CC[C@]43C)[C@@H]12` (some centres not stated) and `CN(C)CCCNC1=C(Cl)C(=O)c2ccccc2C1=O` are within 1.5-fold of each other in TGI: 3.53 µM for the first, 3.33 µM for the second.

With `COc1cc2nc(-c3ccc(C(F)(F)F)cc3)cc(OCCCN3CCC(O)CC3)c2cc1OC` the TGI was 11.3 µM.
